What was measured:
Format in all cases: physicochemical
[1] = Mass colouring of polystyrene granules, injection moulding at 240° C., fastness; details: 0.02 g dye per 100 g polystyrene, transparent sheets
Method: a) 100 g of polystyrene granules and 0.02 g of the dye from Example 4 are mixed intensely in a drum mixer for 15 min. The dry-stained granules are processed on a screw injection moulding machine at 240° C. This gives transparent bluish red sheets of very good light fastness and migration fastness.

[2] = Mass colouring of transparent polyethylene terephthalate, twin-screw extruder at 280° C., fastness; details: 0.025 g dye per 100 g transparent polyethylene terephthalate
Method: b) 0.025 g of the dye from Example 4 are mixed with 100 g of a transparent polyethylene terephthalate grade and the mixture is homogenized in a twin-screw extruder at 280° C. This gives a transparent bluish red coloration with good light fastness and migration fastness. After subsequent granulation the coloured plastic can be processed in accordance with the typical methods of thermoplastic shaping.

[3] = Mass colouring of polycarbonate, twin-screw extruder at 290° C., fastness; details: 0.03 g dye per 100 g polycarbonate
Method: c) 100 g of a commercially customary polycarbonate are dry-mixed in granule form with 0.03 g of the dye from Example 4. The granules dusted in this way are homogenized in a twin-screw extruder at 290° C. This gives a transparent bluish red coloration with good light fastness and migration fastness. The coloured polycarbonate is extruded as a strand from the extruder and processed to granules. The granules can be processed by the typical methods of processing thermoplastic compounds.

[4] = Maximum solubility of the dyes in methyl benzoate and spectral data of the saturated solutions; details: for Solubility (maximum solubility): in methyl benzoate; for E11 = Extinction (absorbance) of 1 g of this solution in 100 ml of N-methyl-pyrrolidone, 1 cm cell: saturated solution of the dye alone in methyl benzoate
Method: The maximum solubility of the dyes was determined in methyl benzoate.

For `Nc1c(OCCOc2ccc(OCCOc3cc(O)c4c(c3N)C(=O)c3ccccc3C4=O)cc2)cc(O)c2c1C(=O)c1ccccc1C2=O` [Example 4], the light fastness [1] was “very good”, the migration fastness [1] was “very good” and the light fastness [2] was “good”. The migration fastness [2] was “good”, the light fastness [3] was “good” and the migration fastness [3] was “good”.
In the case of `O=C1c2c(Cl)c(Cl)c(Cl)c(Cl)c2C2=Nc3cccc4cccc(c34)N12` [Dye (7), reference compound], the “Solubility (maximum solubility)” value [4] was 0.107 g/100 ml and the “E11 = Extinction (absorbance) of 1 g of this solution in 100 ml of N-methyl-pyrrolidone, 1 cm cell” value [4] was 0.17.
In the case of `Nc1c(Oc2ccc(C3(c4ccc(Oc5cc(O)c6c(c5N)C(=O)c5ccccc5C6=O)cc4)CCCCC3)cc2)cc(O)c2c1C(=O)c1ccccc1C2=O` [Dye (15)], the “Solubility (maximum solubility)” value [4] was 0.57 g/100 ml and the “E11 = Extinction (absorbance) of 1 g of this solution in 100 ml of N-methyl-pyrrolidone, 1 cm cell” value [4] was 1.8.

From patent US20090076199A1, “RED DYE MIXTURE” (LANXESS DEUTSCHLAND GMBH, priority 2007, published 2009)
